A value given as a limit tells only on which side of the number the result lay.

Series [1] in a line: Rate of dissolution of rebaudioside A polymorphs in H2O at 25° C. It is filed as physicochemical. The following applies: result in words. From the text: (§1) The purification of rebaudioside A by crystallization as described above results in the formation of at least four different polymorphs: Form 1: a rebaudioside A hydrate; Form 2: an anhydrous rebaudioside A; Form 3: a rebaudioside A solvate; and Form 4: an amorphous rebaudioside A. The aqueous organic solution and temperature of the purification process influence the resulting polymorphs in the substantially pure rebaudioside A composition. FIGS. 1-5 are exemplary powder x-ray diffraction (XRPD) scans of polymorphs Form I (hydrate), Form 2 (anhydrate), Form 3A (methanol solvate), Form 3B (ethanol solvate), and Form 4 (amorphous), respectively.

Series [2] can be described thus: Alcohol content of rebaudioside A polymorphs. It is filed as physicochemical.
From the text: as §1

Series [3] is described as follows: Moisture content of rebaudioside A polymorphs. It counts as physicochemical.
From the text: as §1

The format of series [4] is physicochemical. Here is the method: A solution of rebaudioside A (>97% pure by HPLC) was prepared in double distilled water (12.5 gm in 50 mL, 25% concentration) by stirring the mixture at 40° C. for 5 minutes. An amorphous rebaudioside A polymorph was formed by immediately using the clear solution for spray drying with the Lab-Plant spray drier SD-04 instrument (Lab-Plant Ltd., West Yorkshire, U.K.). The solution was fed through the feed pump into the nozzle atomizer which atomized it into a spray of droplets with the help of a constant flow of nitrogen/air. […] This dry powder (11-12 g, H2O 6.74%) was discharged continuously from the drying chamber and was collected in a bottle.

In series [5] the test system is panel of experts in the sensory evaluation of foods and beverages. Briefly: Sensory evaluation of sweetness linger and sugar-like taste by expert panel. It is filed as in vivo, human. Also on record: key: 0=no sweetness linger; 1=very slight sweetness linger; 2=slight sweetness linger; 3=moderate sweetness linger; 4=moderately high sweetness linger; 5=high sweetness linger. Conditions: for Sweetness Linger rating defined by protocol: scale anchors: sucrose, 500 ppm of REBA control sample. Here is the method: Sensory evaluation of the samples prepared in Example Set G was carried out under the following protocol, similar to that described hereinabove. In this test protocol, none of the samples were swallowed. All samples were expectorated and the mouth was rinsed with water after the tasting. Immediately upon sensing maximal sweetness, the sample was expectorated, the mouth was rinsed with water and the rate of sweetness decay (“Sweetness Linger”) was measured, where attention was focused on the sweetness 3-4 min after the water rinse. After sample tasting was complete, a salty oyster cracker was chewed followed by a water rinse, and at least 5 minutes followed before tasting the next sample. The sweetness linger was rated by a panel of experts in the sensory evaluation of foods and beverages using the following scale: 0=no sweetness linger, 1=very slight sweetness linger, 2=slight sweetness linger, 3=moderate sweetness linger, 4=moderately high sweetness linger, 5=high sweetness linger.
The “Sweetness Linger” rating for sucrose observed by this protocol is defined as 0. The Sweetness Linger of a 500 ppm of REBA control sample is defined as 5. Experimental samples were tasted by the same protocol, always allowing sufficient time between samples to ensure re-equilibration of the sensory system. Re-tasting of control samples during the course of the experiment was allowed and encouraged.
The comparison taste test was performed between two controls and addition of sweet taste improving additive on the onset and/or sweetness linger.
Sweet taste improving compositions were combined with a REBA solution to determine their effect on sweetness linger. Screening of the initial sample, or further dilutions, allowed identification of concentrations which were just above-threshold, herein defined as “near-threshold concentrations.” The near-threshold additive concentrations, a 6- to 100-fold higher additive concentration (depending on the off-taste intensity), and a mid-level additive concentration (halfway between the near-threshold and higher additive concentration) were evaluated to determine the effect on sweetness linger of a REBA solution. […]
Sensory evaluation using the protocol described in Example Set G then was used to evaluate the sweetness linger of the REBA solutions.

Series [6] can be described thus: Sweetness level as sucrose equivalent.

On to rebaudioside A [Form 2], for which the “Rate of dissolution in H2O at 25° C.” value in series [1] is recorded as “Intermediate”. Also, the Alcohol content in series [2] is on record as under 1%. Moreover, the Moisture content in series [3] is on record as under 1%.
Regarding rebaudioside A [Form 4], the “Rate of dissolution in H2O at 25° C.” value in series [1] was “High”. Also, the “solubility in water at room temperature” value in series [4] is listed as over 35.0%. In series [3], this molecule showed a Moisture content of 6.74%.
With `OC[C@H]1O[C@@](CO)(O[C@H]2O[C@H](CO)[C@@H](O)[C@H](O)[C@H]2O)[C@@H](O)[C@@H]1O` [sugar, sucrose], the “Sweetness Linger rating defined by protocol” value in series [5] was 0.
As to rebaudioside A, the sweetness linger rating in series [5] (control: 400 ppm REBA in citric acid/potassium citrate composition, no additive) amounted to 5; in series [5] (control: 500 ppm REBA in carbon-treated water, phosphoric acid (75%) pH 2.4-2.5), 5. The “Sweetness Linger rating defined by protocol” value in series [5] is on record as 5. The entries for the “sucrose equivalence of sweetness” value in series [6] (180 ppm rebaudioside A in 1:1 diluted beverage) and in series [6] (400 ppm REBA in citric acid/potassium citrate composition) were 5 % sucrose and 8 g sucrose, respectively.
In the case of rebaudioside A [Form 3], the “Rate of dissolution in H2O at 25° C.” value in series [1] was “High”. In series [2], the Alcohol content is given as 1-3%. Moreover, in series [3], the Moisture content was under 3%.
For rebaudioside A [Form 1] the same measures were “Very low”, under 0.5% and over 5%.

The record behind these values is patent US9173425B2, “High-potency sweetener composition with vitamin and compositions sweetened therewith” (THE COCA-COLA COMPANY, priority 2005, dated 2015).
